According to US20220145264A1, “CULTURE MEDIUM FOR MAMMALIAN EXPANDED POTENTIAL STEM CELLS, COMPOSITION, AND METHODS THEREOF” (THE UNIVERSITY OF HONG KONG, priority 2019, published 2022):

Legend:
pEPSCs^Emb = test: Requirement of individual culture components for pEPSCs (RT-qPCR, AP+ colony formation); assay type: cell-based, porcine; conditions: withdrawal from medium, porcine EPSCs
Procedure: (§1) Porcine and human EPSC cultures were routinely maintained on STO feeders. STO feeder plates were prepared 3-4 days before passaging by thawing and plating the mitomycin C inactivated STO cells on 0.1% gelatinised plates at the density of ˜1.1×10^4 cells/cm^2. Porcine/human EPSC cells were maintained on STO feeder layers and enzymatically passaged every 3-5 days by a brief PBS wash followed by treatment for 3-5 minutes with 0.25% trypsin/EDTA (Gibco, Cat. No. 25500-054). The cells were dissociated and centrifuged (300 g×5 minutes) in M10 medium. M10: knockout DMEM (Gibco, Cat. No. 10829-018), 10% FBS (Gibco, Cat. No. 10270), 1× Glutamine Penicillin-Streptomycin (Thermo Fisher Scientific, Cat. No. 11140050) and 1×NEAA (Thermo Fisher Scientific, Cat. No. 10378-016). After removing supernatant, the porcine/human EPSCs were re-suspended and seeded in pEPSCM/hEPSCM supplemented with 5 μM ROCK inhibitor Y-27632 (Tocris, Cat. No. 1254). 5% FBS (Gibco, Cat. No. 10270) and 10% KnockOut Serum Replacement (KSR) (Gibco, Cat. No. 10828028) were added in pEPSCM and hEPSCM respectively to improve cells survive. 12-24 hours later, medium was switched to pEPSCM/hEPSCM only. Both pEPSCM and hEPSCM are N2B27 based media. N2B27 basal media (500 ml) was prepared by inclusion of the following components: 482.5 ml DMEM/F-12 (Gibco, Cat. No. 21331-020), 2.5 ml N2 supplement (Thermo Fisher Scientific, Cat. No. 17502048), 5 ml B27 supplement (Thermo Fisher Scientific, Cat. No. 17504044), 5 ml 1× Glutamine Penicillin-Streptomycin (Thermo Fisher Scientific, Cat. No. 11140-050), and 5 ml 1×NEAA (Thermo Fisher Scientific, Cat. No. 10378-016), 0.1 mM 2-mercaptoethanol (Sigma, Cat. No. M6250). pEPSCM (500 ml) was generated by adding the following small molecules and cytokines into 500 ml N2B27 basal media: 0.2 μM CHIR99021(GSK3i, TOCRIS, Cat. No. 4423), 1 μM WH-4-023 (SRC inhibitor, TOCRIS, Cat. No. 5413), 2.5 μM XAV939 (Sigma, Cat. No. X3004) or 2.5 μM IWR-1 (TOCRIS, Cat. No. 3532), […] Vitamin C (Sigma, Cat. No. 49752-100G), 10 ng/ml LIF (Stem Cell Institute, University of Cambridge. SCI) and 20 ng/ml ACTIVIN (SCI). hEPSCM (500 ml) was generated by adding the following components into 500 ml N2B27 basal media: 1.0 μM CHIR99021(GSK3 inhibitor, TOCRIS, Cat. No. 4423), 0.5 μM A-419259 (SRC inhibitor, TOCRIS, Cat. No. 3914), 2.5 μM XAV939 (Sigma, Cat. No. X3004), […] Vitamin C (Sigma, Cat. No. 49752-100G), 10 ng/ml LIF (SCI). Although both targeting SRC family kinases (SFKs), WH-4-023 and A419259 were preferred for porcine and human EPSCs, respectively. […] The concentrations of CHIR99021 for porcine and human EPSC cultures are 0.2 μM and 1.0 μM, respectively. […] 0.25 μM SB 590885 (BRAF inhibitor, R&D, Cat. No. 2650) and 2.0 μM SP600125 ([…], TOCRIS, Cat. No. 1496) were included to improve porcine and human EPSC cultures, but they were not essential for the routine maintenance of porcine and human EPSCs. All cell cultures in this paper were performed under conditions of 37° C. and 5% CO2 unless stated otherwise.
(§2) Total RNA was isolated using an RNeasy Mini Kit (Qiagen, Cat. No. 74106) for cultured cells or RNeasy Micro Kit (Qiagen, Cat. No. 74034) for sorted NANOS3-mCherry^+ cells. RNA was subsequently quantified and treated with gDNA WipeOut to remove genomic DNA. Complementary DNA (cDNA) was prepared using a QuantiTect Reverse Transcription Kit (Qiagen, Cat. No. 205311). RT-qPCR primers or TaqMan Gene Expression Assays (Life Technologies) are listed in Supplementary Table 10 and 11. ABsolute Blue qPCR ROX Mix (ABgene, Cat. No. AB4138B) were used for probe based qPCR assays and SYBR Green ROX qPCR Mastermix (Qiagen, Cat. No. 330523) were used for primer based qPCR assays. All qPCR reactions were performed on ABI 7900 HT Sequence Detection System (Life Technologies). Information on all primers and probes used for qPCR analysis are provided in Supplementary Table 10 and 11. Gene expression was determined relative to GAPDH using the […]. […]

AXIN1 [1] = test: Western blot analysis of AXIN1 in human EPSCs; assay type: cell-based
Procedure: (§3) Whole-cell extracts were prepared from cells with indicated treatments in lysis buffer composed of 50 mM Tris-HCl (pH 7.5), 0.15M NaCl, 0.1% SDS, 1% Triton X-100, 1% sodium deoxycholate and complete mini EDTA free protease inhibitor cocktail (Roche Applied Science, Cat. No. 11836170001). The cells for the experiment were collected from the same batch of culture when the culture had reached 70-80% confluence. The biological replicates were included to allow the meaningful conclusions. 10 μg protein were used for electrophoresis and transferred to nitrocellulose membranes. Membranes were blocked with 5% milk and treated with antibodies. Primary antibodies of mouse or rabbit anti AXIN1, SMAD2/3, p-SMAD2/3 and ALPHA-TUBULIN were used. Horseradish peroxidase-conjugated secondary antibodies against rabbit or mouse IgG were added. After antibody treatment, blots were developed using ECL Western Blotting Detection System (Thermo Fisher Scientific, Cat. No. 32106). The antibodies used in these experiments is provided in Supplementary Table 9.

H1-EPSCs = test: Requirement of individual culture components for hEPSCs (RT-qPCR, AP+ colony formation); assay type: cell-based, human; conditions: withdrawal from medium, human EPSCs
Procedure: as §1, §2

AXIN1 [2] = test: Western blot analysis of AXIN1 in porcine EPSCs; assay type: cell-based
Procedure: as §3

canonical Wnt signalling [3] = test: TOPflash luciferase assay in human EPSCs; assay type: cell-based
Procedure: (§4) For the TOPflash assay, 2.0×10^6 cells were transfected with 10 μg TOPflash plasmid. 5 μg pRL-TK (Renilla) vectors were also transfected for normalization. Cells were split 1:9 into a 24-well plate in pEPSCM and hEPSCM with or without XAV939 (WNTi, 2.5 μM, Cat. No. X3004) for 48 h. Cell lysates were collected for luciferase assays. For determining the regulation pattern of Oct4 expression in porcine EPSCs, 10 μg reporter constructs were electroporated into 1.5×10^6 pEPSCs with 5 μg pRL-TK. Assays were performed 48 h later. All luciferase assays were performed using the Dual-Glo Luciferase Assay System (Promega, Cat. No. E2920).

canonical Wnt signalling [4] = test: TOPflash luciferase assay in porcine EPSCs; assay type: cell-based
Procedure: as §4

[5] = tested on: Dox-dependent porcine iPSCs; test: Dox removal from Dox-dependent porcine iPSCs; assay type: cell-based; conditions: upon Dox removal
Procedure: Germany Landrace and China TAIHU OCT4-TD-tomato [2] Porcine fetal fibroblasts (PFFs) were plated on gelatinized 15-cm tissue culture plates and cultured in M20 media. They were trypsinized with 0.25% trypsin/EDTA solution (Gibco, Cat. No. 25500-054) and harvested for electroporation at 80% confluence. M20: knockout DMEM (Gibco, Cat. No. 10829-018), 20% FBS (Gibco, Cat. No. 10270), 1× Glutamine Penicillin-Streptomycin (Thermo Fisher Scientific, Cat. No. 11140-050) and 1×NEAA (Thermo Fisher Scientific, Cat. No. 10378-016). The transfections were performed using an Amaxa Nucleofector machine (Lonza) according to the manufacturer's protocol (NHDF Nucleofector® Kit, Cat. No. VPD-1001, program U-20). piggyBac transposition was used to achieve stable integration of reprogramming factors. The expression of the reprogramming factors was under the transcriptional control of the tetO2 tetracycline/doxycycline inducible promoter. 1.5 million PFFs and 6.0 μg DNA (2.0 μg PB-TRE-pOSCK, Porcine OCT4, SOX2, cMYC and KLF4; 1.0 μg PB-TRE-pNhL, 1.0 μg PB-TRE-hRL: human RARG and TRH1, 1.0 μg PB-EF1a-transposase and 1.0 μg PB-EF1a-rTTA) were used in each electroporation reaction. PB-TRE-pOSCK: cDNAs of porcine OCT4, SOX2, cMYC and KLF4 linked by 2A sequence were expressed as a single transcript from the tetO2 promoter. […]

| canonical WNT activities (canonical Wnt signalling [3]; human EPSCs) | TOPflash activity (canonical Wnt signalling [3]; removing XAV939 from hEPSCM for 5 days) | canonical WNT activities (canonical Wnt signalling [4]; porcine EPSCs) | TOPflash activity (canonical Wnt signalling [4]; removing XAV939 from pEPSCM for 5 days) | Compound | state of EPSCs on withdrawal of the compound (pEPSCs^Emb) | AXIN1 protein content (AXIN1 [1]) | state of EPSCs on withdrawal of the compound (H1-EPSCs) | AXIN1 protein content (AXIN1 [2]) | time to differentiation of iPSCs [5] |
| --- | --- | --- | --- | --- | --- | --- | --- | --- | --- |
| reduced | substantially increased | reduced | substantially increased | Oc1nc(-c2ccc(C(F)(F)F)cc2)nc2c1CSCC2 [XAV939] | collapse and differentiation | enhanced | collapse and differentiation | enhanced | – |
| – | – | – | – | C[C@H]1c2cccc(O)c2C(=O)C2=C(O)[C@]3(O)C(=O)C(C(N)=O)=C(O)[C@@H](N(C)C)[C@@H]3[C@@H](O)[C@@H]21 [Dox, Doxycycline] | – | – | – | – | 4 to 5 days |
